ChEMBL document CHEMBL1201862, “PubChem BioAssay data set” (2004)
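The compound was tested at five concentrations on cells cultured in 96-well plates, with a 48-hour exposure period. GI50 = concentration required for 50% inhibition of growth.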 Calls of active or inactive are those of the source. No stated cut-off is given here; in the data, active = GI50 up to about 1.1 µM and inactive = higher.

Assays:
Assay in all cases: DTP human tumour cell line panel, 48 h
786-0 = system: 786-0
A498 = system: A498
A549 = system: A549
ACHN = system: ACHN
CAKI-1 = system: CAKI-1
DLD-1 = system: DLD-1
DMS-114 = system: DMS-114
DMS-273 = system: DMS-273
EKVX = system: EKVX
HCC 2998 = system: HCC 2998
HCT-116 = system: HCT-116
HCT-15 = system: HCT-15
HL-60 = system: HL-60
HOP-18 = system: HOP-18
HOP-62 = system: HOP-62
HOP-92 = system: HOP-92
HT-29 = system: HT-29
IGROV-1 = system: IGROV-1
K562 = system: K562
KM-20L2 = system: KM-20L2
KM12 = system: KM12
M14 = system: M14
M19-MEL = system: M19-MEL
MOLT-4 = system: MOLT-4
Malme-3M = system: Malme-3M
NCI-H226 = system: NCI-H226
NCI-H23 = system: NCI-H23
OVCAR-3 = system: OVCAR-3
OVCAR-4 = system: OVCAR-4
OVCAR-5 = system: OVCAR-5
OVCAR-8 = system: OVCAR-8
RPMI-8226 = system: RPMI-8226
RXF 393 = system: RXF 393
SF-268 = system: SF-268
SF-295 = system: SF-295
SF-539 = system: SF-539
SK-MEL-28 = system: SK-MEL-28
SK-MEL-2 = system: SK-MEL-2
SK-MEL-5 = system: SK-MEL-5
SN12C = system: SN12C
SNB-19 = system: SNB-19
SNB-75 = system: SNB-75
SNB-78 = system: SNB-78
SW-620 = system: SW-620
U-251 = system: U-251
UACC-257 = system: UACC-257
UACC-62 = system: UACC-62
UO-31 = system: UO-31
XF498 = system: XF498
CCRF-CEM = system: CCRF-CEM
COLO 205 = system: COLO 205
LXFL 529 = system: LXFL 529
NCI-H460 = system: NCI-H460
NCI-H522 = system: NCI-H522
SK-OV-3 = system: SK-OV-3
SR = system: SR
TK-10 = system: TK-10
LOX IMVI = system: LOX IMVI
MCF7 = system: MCF7
NCI/ADR-RES = system: NCI/ADR-RES

N#CC(C(=O)CCC(=O)Nc1ccc(Cl)c(Cl)c1)c1ccccc1 (stereo not drawn)
GI50 (786-0): > 100 µM (inactive)
GI50 (A498): > 100 µM (inactive)
GI50 (A549): > 100 µM (inactive)
GI50 (ACHN): > 100 µM (inactive)
GI50 (CAKI-1): > 100 µM (inactive)
GI50 (DLD-1): > 100 µM (inactive)
GI50 (DMS-114): > 100 µM (inactive)
GI50 (DMS-273): > 100 µM (inactive)
GI50 (EKVX): > 100 µM (inactive)
GI50 (HCC 2998): > 100 µM (inactive)
GI50 (HCT-116): > 100 µM (inactive)
GI50 (HCT-15): > 100 µM
GI50 (HL-60): > 100 µM (inactive)
GI50 (HOP-18): > 100 µM (inactive)
GI50 (HOP-62): > 100 µM (inactive)
GI50 (HOP-92): > 100 µM (inactive)
GI50 (HT-29): > 100 µM (inactive)
GI50 (IGROV-1): > 100 µM (inactive)
GI50 (K562): > 100 µM (inactive)
GI50 (KM-20L2): > 100 µM (inactive)
GI50 (KM12): > 100 µM (inactive)
GI50 (M14): > 100 µM (inactive)
GI50 (M19-MEL): > 100 µM (inactive)
GI50 (MOLT-4): > 100 µM (inactive)
GI50 (Malme-3M): > 100 µM (inactive)
GI50 (NCI-H226): > 100 µM (inactive)
GI50 (NCI-H23): > 100 µM (inactive)
GI50 (OVCAR-3): > 100 µM (inactive)
GI50 (OVCAR-4): > 100 µM (inactive)
GI50 (OVCAR-5): > 100 µM (inactive)
GI50 (OVCAR-8): > 100 µM (inactive)
GI50 (RPMI-8226): > 100 µM (inactive)
GI50 (RXF 393): > 100 µM (inactive)
GI50 (SF-268): > 100 µM (inactive)
GI50 (SF-295): > 100 µM (inactive)
GI50 (SF-539): > 100 µM (inactive)
GI50 (SK-MEL-28): > 100 µM (inactive)
GI50 (SK-MEL-2): > 100 µM (inactive)
GI50 (SK-MEL-5): > 100 µM (inactive)
GI50 (SN12C): > 100 µM (inactive)
GI50 (SNB-19): > 100 µM (inactive)
GI50 (SNB-75): > 100 µM (inactive)
GI50 (SNB-78): > 100 µM (inactive)
GI50 (SW-620): > 100 µM (inactive)
GI50 (U-251): > 100 µM (inactive)
GI50 (UACC-257): > 100 µM (inactive)
GI50 (UACC-62): > 100 µM (inactive)
GI50 (UO-31): > 100 µM (inactive)
GI50 (XF498): > 100 µM (inactive)

O=C1CC23CCCCCCCCCCC2(C1)CC(=O)C3 (stereo not drawn)
GI50 (786-0): 32.6 µM (inactive)
GI50 (A549): 30 µM (inactive)
GI50 (ACHN): 29 µM (inactive)
GI50 (CCRF-CEM): 18.9 µM (inactive)
GI50 (COLO 205): 18.4 µM (inactive)
GI50 (DLD-1): 34 µM (inactive)
GI50 (DMS-114): 26.7 µM (inactive)
GI50 (DMS-273): 23.1 µM (inactive)
GI50 (EKVX): 30.1 µM (inactive)
GI50 (HCC 2998): 32.7 µM (inactive)
GI50 (HCT-15): 27.3 µM
GI50 (HL-60): 17.4 µM (inactive)
GI50 (HOP-18): 24 µM (inactive)
GI50 (HOP-92): 21.1 µM (inactive)
GI50 (HT-29): 18.1 µM (inactive)
GI50 (IGROV-1): 25.7 µM (inactive)
GI50 (K562): 27.5 µM (inactive)
GI50 (KM12): 21.3 µM (inactive)
GI50 (LXFL 529): 23.6 µM (inactive)
GI50 (M14): 16.6 µM (inactive)
GI50 (M19-MEL): 20.7 µM (inactive)
GI50 (MOLT-4): 18.7 µM (inactive)
GI50 (Malme-3M): 24.6 µM (inactive)
GI50 (NCI-H226): 26.5 µM (inactive)
GI50 (NCI-H23): 32.1 µM (inactive)
GI50 (NCI-H460): 34.7 µM (inactive)
GI50 (NCI-H522): 18.6 µM (inactive)
GI50 (OVCAR-3): 17.7 µM (inactive)
GI50 (OVCAR-5): 23.2 µM (inactive)
GI50 (OVCAR-8): 31.2 µM (inactive)
GI50 (RPMI-8226): 19.4 µM (inactive)
GI50 (RXF 393): 25.4 µM (inactive)
GI50 (SF-268): 51.9 µM (inactive)
GI50 (SF-295): 35.3 µM (inactive)
GI50 (SF-539): 33.7 µM (inactive)
GI50 (SK-MEL-28): 38.7 µM (inactive)
GI50 (SK-MEL-2): 19.5 µM (inactive)
GI50 (SK-MEL-5): 17.4 µM (inactive)
GI50 (SK-OV-3): 16.8 µM (inactive)
GI50 (SN12C): 17.6 µM (inactive)
GI50 (SNB-19): 22.9 µM (inactive)
GI50 (SR): 19.9 µM (inactive)
GI50 (SW-620): 40.6 µM (inactive)
GI50 (TK-10): 38.5 µM (inactive)
GI50 (U-251): 22.8 µM (inactive)
GI50 (UACC-257): 34.8 µM (inactive)
GI50 (UO-31): 20.8 µM (inactive)
GI50 (XF498): 21.5 µM (inactive)

COc1cc(/N=N\c2cccc(S(=O)(=O)O)c2)c(C)cc1/N=N\c1ccc(/C=C/c2ccc(/N=[N+](/[O-])c3ccc(/C=C/c4ccc(/N=N\c5cc(C)c(/N=N/c6cccc(S(=O)(=O)O)c6)cc5OC)cc4)c(S(=O)(=O)O)c3)cc2S(=O)(=O)O)cc1
GI50 (A498): > 100 µM (inactive)
GI50 (A549): > 100 µM (inactive)
GI50 (CCRF-CEM): > 100 µM (inactive)
GI50 (COLO 205): > 100 µM (inactive)
GI50 (DLD-1): > 100 µM (inactive)
GI50 (DMS-114): > 100 µM (inactive)
GI50 (DMS-273): > 100 µM (inactive)
GI50 (EKVX): > 100 µM (inactive)
GI50 (HCC 2998): > 100 µM (inactive)
GI50 (HCT-116): > 100 µM (inactive)
GI50 (HCT-15): > 100 µM
GI50 (HL-60): > 100 µM (inactive)
GI50 (HOP-18): > 100 µM (inactive)
GI50 (HOP-62): > 100 µM (inactive)
GI50 (HOP-92): > 77.3 µM (inactive)
GI50 (HT-29): > 100 µM (inactive)
GI50 (IGROV-1): > 100 µM (inactive)
GI50 (K562): > 100 µM (inactive)
GI50 (KM-20L2): > 100 µM (inactive)
GI50 (KM12): > 100 µM (inactive)
GI50 (LOX IMVI): > 100 µM (inactive)
GI50 (M19-MEL): > 100 µM (inactive)
GI50 (MCF7): > 100 µM (inactive)
GI50 (MOLT-4): > 100 µM (inactive)
GI50 (Malme-3M): > 100 µM (inactive)
GI50 (NCI-H226): > 100 µM (inactive)
GI50 (NCI-H23): > 100 µM (inactive)
GI50 (NCI-H460): > 100 µM (inactive)
GI50 (NCI-H522): > 93.5 µM (inactive)
GI50 (NCI/ADR-RES): > 100 µM (inactive)
GI50 (OVCAR-3): > 100 µM (inactive)
GI50 (OVCAR-4): > 66.7 µM (inactive)
GI50 (OVCAR-5): > 84.5 µM (inactive)
GI50 (OVCAR-8): > 100 µM (inactive)
GI50 (RXF 393): > 100 µM (inactive)
GI50 (SF-268): > 100 µM (inactive)
GI50 (SF-295): > 100 µM (inactive)
GI50 (SF-539): > 100 µM (inactive)
GI50 (SK-MEL-28): > 100 µM (inactive)
GI50 (SK-MEL-2): > 100 µM (inactive)
GI50 (SK-MEL-5): > 100 µM (inactive)
GI50 (SK-OV-3): > 100 µM (inactive)
GI50 (SN12C): > 100 µM (inactive)
GI50 (SNB-19): > 100 µM (inactive)
GI50 (SNB-75): > 100 µM (inactive)
GI50 (SW-620): > 100 µM (inactive)
GI50 (U-251): > 100 µM (inactive)
GI50 (UACC-257): > 100 µM (inactive)
GI50 (UACC-62): > 100 µM (inactive)
GI50 (UO-31): > 100 µM (inactive)
GI50 (XF498): > 100 µM (inactive)
